Data reported in a melting point compilation (Tetko et al.; mined from patent text by program, amines drawn as free bases though some values may be those of a salt).

Row | melting point [°C] | SMILES
1 | 232 to 234 | COc1cc(OC)n2nc(S(=O)(=O)Nc3c(Cl)cccc3Cl)nc2n1
2 | 98 to 102 | COC(=O)CC(=O)NC(N)Cc1ccccc1 (stereo not given)
3 | 117 to 119 | CCCN(c1ccccc1)c1nc(C)nc(SC)c1[N+](=O)[O-]
4 | 216 to 217 | C#Cc1cc(CC)c(-c2c(O)c(C)nn(C)c2=O)c(CC)c1
5 | 107 to 108 | O=C1OCc2ccc(CO)cc21
6 | 146 to 149 | CCc1noc(-c2cc3c(cn2)[nH]c2ccccc23)n1
7 | 195 to 197 | CN(C)C1CCc2[nH]c3ccc(CO)cc3c2C1 (stereo not given)
8 | 190 to 192 | CNS(=O)(=O)c1sc2ccccc2c1CC(=O)O
9 | 200 to 203 | CCCc1cc(Cl)c2oc(C(=O)O)c(C)c2c1O
10 | 118 to 122 | COc1ccc(C(=O)c2ccoc2)c(Cl)c1Cl
11 | 46 to 47 | Cc1ccn(-c2ccc(Cl)c(Cl)c2)n1
12 | 95 to 103 | CCc1nc2c(C#N)cccc2n1-c1ccc(CCNC(=O)NS(=O)(=O)c2ccc(C)cc2)cc1
13 | 126 to 127 | CC(Cl)CCC(=O)Nc1c(C#N)cnn1-c1ccc(Cl)c(Cl)c1Cl (stereo not given)
14 | 256 to 257 | Cc1nc2c3ccccc3ccn2c1Cc1nnn[nH]1
15 | 151 to 152 | COC(=O)C(Cl)=Cc1cc(-n2c(OC)nc(C(F)(F)F)cc2=O)ccc1Cl
16 | 128 to 129 | c1csc(-c2ncc(COc3ccc(CCCCn4ccnc4)cc3)s2)c1
17 | 216 to 217 | Cc1cc2ccccn2c1C(=O)c1ccc(O)c(Br)c1
18 | 196 | CS(=O)(=O)NCc1cccc(-c2csc(N=C(N)N)n2)n1
19 | 232 to 234 | Cc1c(Nc2ncccc2C(=O)O)cccc1C(F)F

Row | melting point [°C] | SMILES
20 | 71 to 72 | COC(=O)CCc1oc(Cl)nc1-c1ccc(Cl)cc1
21 | 219 to 221 | CN(C)CCOCC1=Nc2cc(Cl)ccc2S(=O)(=O)N1
22 | 195 to 198 | CCCCNc1cc(CN)cc(S(N)(=O)=O)c1Oc1ccccc1
23 | 149 to 150 | CSc1c(C(=O)O)ccc(F)c1F
24 | 154 to 156 | O=C(O)COc1ccc(OC(F)(F)F)cc1C(=O)NCc1cccc([N+](=O)[O-])c1
25 | 105 | CCCCc1cc2cc([N+](=O)[O-])ccc2[nH]1
26 | 52 to 53 | N#CCc1ccc(F)cc1I
27 | 197 to 201 | O=C(CCC(NS(=O)(=O)c1ccc2oc3ccccc3c2c1)C(=O)O)NCCc1ccccc1 (stereo not given)
28 | 171 | CSc1ccc(C=CC(=O)c2ccc(O)cc2)cc1
29 | 198 to 199 | Cn1nc(-c2cccc(C(F)(F)F)c2)cc1C(=O)O
30 | 168 to 169 | CN(c1cccc2cc(C3=NCC(CCO)S3)[nH]c12)S(=O)(=O)c1cccs1 (stereo not given)
31 | 57 to 87 | CCOC(=O)CC[C@H](NC(=O)c1ccc(CCc2cnc3[nH]c(NC(=O)C(C)(C)C)nc(=O)c3c2)s1)C(=O)OCC
32 | 127 to 128 | COc1ccc(C(=O)Nc2ccccc2CCC2CCCCN2C)cc1 (stereo not given)
33 | 240 to 242 | Cc1nnc2ccc(-c3ccc(N)c(C(F)(F)F)c3)nn12
34 | 70 to 71 | Cc1ccnc2c1C(=O)CC(c1ccco1)C2 (stereo not given)
35 | 112 to 114 | Oc1ccc(CCNCC(O)c2ccccn2)cc1 (racemic)
36 | 201 to 202 | Cn1cc(C(=O)C(Cl)Cl)c(=O)c(-c2cccc(Cl)c2)c1
37 | 214 to 217 | C=CS(=O)(=O)c1cc2c(Nc3cccc(Br)c3)ncnc2cn1
38 | 202 to 204 | Cc1cc(COC2=NS(=O)(=O)c3ccccc32)sn1

Row | melting point [°C] | SMILES
39 | 281 to 283 | Cc1nc(-c2ccc(Cl)cc2)c2nc(-c3ccccc3)cc-2[nH]1
40 | 123 to 124 | CCOC(=O)C(Oc1nc(OC)cc(OC)n1)C(C)(C)c1ccccc1 (stereo not given)
41 | 368 to 370 | NC(=O)c1nc(-c2cccc(O)c2)nc2c1[nH]c(=O)n2CC1CCCCC1
42 | 154 | CCCCc1nc(S(=O)(=O)c2ccc(OC)cc2)c(C(=O)O)n1Cc1cc2c(cc1Cl)OCO2
43 | 173 to 178 | COc1cc2c(cc1CCCCN1CCCC1)[nH]c1cc(-c3ccccc3Cl)c3c(c12)C(=O)NC3=O
44 | 231 to 233 | O=C1CCCc2[nH]c3cc(F)ccc3c21
45 | 131 to 132 | CCOC(=O)c1cccc(C(=O)O)c1
46 | 197 to 199 | CCCOc1ccc(S(=O)(=O)N2CCC(C(=O)OCC)CC2)cc1-c1nc2cc(N)c(N)cc2c(=O)[nH]1
47 | 257 to 260 | CCOC(=O)c1nnc2ccc(N3C(=O)C=CC3=O)cc2c1O
48 | 94 to 98 | CC(=O)Oc1cc(C(C)C)ccc1C1(OC(C)=O)C(=O)c2cccc([N+](=O)[O-])c2C1=O (stereo not given)
49 | 158 to 160 | CC[Si](C#Cc1ccc2nc(-c3ncc[nH]3)nc(NCCOC)c2c1)(CC)CC
50 | 70 to 74 | CCC1c2cccn2-c2ccc(Cl)cc2N1C(=O)c1ccc(OC)cc1OC (stereo not given)
51 | 92 to 95 | CCCCCCCCCCCCCCCCCCOc1cc(OCCCOc2ccc(O)cc2)cc(C(=O)O)c1
52 | 203 to 205 | CCCC(CCC)C(=O)N[C@@H](Cc1ccccc1)C(=O)N[C@H]1CCOC1=O
53 | 242 to 246 | CCn1cc(C(=O)O)c(=O)c2cc(F)c(-c3csc(CNC)n3)c(O)c21
54 | 119 to 120 | N#Cc1cc(C#N)cc(CO)c1
55 | 108 to 110 | CCCCc1c2ccccc2nc2cc(N)ccc12
56 | 119 to 121 | COC1(c2cccc(S(=O)(=O)c3ccc(N(C)C(C)=O)c(Cl)c3)c2)CCOCC1
57 | 198 | CSC1(C)C(=O)N(C(C)=O)c2ccc(C3=NNC(=O)SC3)cc21 (stereo not given)

More lines, now with the values behind:

Row | SMILES | melting point [°C]
58 | CC(C)c1nc(COC(=O)N[C@@H](C)C(=O)N[C@@H](Cc2ccccc2)C[C@H](O)[C@H](Cc2ccccc2)NC(=O)OCc2cncs2)cs1 | 59 to 61
59 | COc1cc2c(cc1OC)CN(c1nc(N3CCc4cc(OC)c(OC)cc4C3)nc(N3CCc4cc(OC)c(OC)cc4C3)n1)CC2 | 166 to 169
60 | Clc1ccc2c(c1)C(n1ccnc1)c1ccccc1CO2 (stereo not given) | 180 to 182
61 | CC(C)(C)NC(=O)CP(=O)(O)O | 163 to 165
62 | CC1CC(=O)N(Cc2ccccc2)c2ccccc2N1C(=O)CN1C(=O)c2ccccc2C1=O (stereo not given) | 248 to 250
63 | O=C(C1CCCCC1)C1CCN(C(=O)c2cc(O)c(O)c([N+](=O)[O-])c2)CC1 | 155 to 165
64 | COc1ccc2c(Cc3c(Cl)cncc3Cl)nnc(Nc3nccs3)c2c1 | 218 to 220
65 | CC1CCOCC1C(C#N)=NO (stereo not given) | 94 to 96
66 | COC(=O)c1ccc2c(nnn2C)c1C(=O)OC | 146 to 147
67 | COc1ccc(C2(C#Cc3ccc(C#N)s3)CCC(=O)CC2)cc1OC1CCCC1 | 106 to 107
68 | Nc1nc(-c2ccnc(-c3ccc(C(=O)NC4CCOCC4)cc3)c2)c(-c2ccccn2)s1 | 268
69 | CC(=O)NC1CCN(CCCCl)CC1 | 74 to 77
70 | Cc1cc(COc2nn3c(-c4ccccc4F)nnc3cc2C2CCC2)no1 | 150
71 | OC(c1ccccc1)(c1ccccc1)C1CCN(CCCOc2ccccc2)CC1 | 87 to 88
72 | Cc1ccc(S(=O)(=O)N2Cc3cncnc3-c3ccc(Cl)cc3C2c2ccccc2Cl)cc1 (stereo not given) | 200 to 201
73 | O=c1oc2c(c(O)c1C(c1ccccc1)C1CC1)CCCCCCCC2 (stereo not given) | 87.6 to 90.4
74 | CN(C(=O)C(F)(F)F)C1(C)CN(c2cc3c(cc2F)c(=O)c(C(=O)O)cn3C2CC2)C1 | 210 to 215
75 | CCc1cccc2c(C(=O)c3cccc(Cl)c3Cl)c(C)n(CCCS(=O)(=O)N(C)C)c12 | 18
76 | COC(=O)C[C@H]1[C@H](NC(=O)OC(C)(C)C)CCN1C(=O)OCc1ccccc1 (relative stereo) | 73 to 74
77 | c1cc2nc3c(n2nc1N1CCOCC1)CCCC3 | 188
78 | COc1ccccc1N1CCN(CC(C(=O)O)c2ccccc2)CC1 (stereo not given) | 160 to 163
79 | Fc1ccccc1CO[C@H]1CO[C@@H](c2ccccc2)OC1 | 65 to 67

Row | SMILES | melting point [°C]
80 | CNc1ccc(C=Cc2ccc(N)cc2)cc1 | 144 to 145
81 | O=C1N(Cc2ccccn2)c2cccc(Br)c2C12COc1cc3c(cc12)CCO3 (stereo not given) | > 200
82 | CS(=O)(=O)c1ccc(-c2cnn(-c3ccsc3)c(=O)c2-c2ccc(F)cc2)cc1 | 200 to 202
83 | COc1ccc(Cn2c(C(=O)O)c(-c3ccc4c(c3)OCO4)c3cc(OCc4ccccc4)ccc32)c(OCC(=O)O)c1 | 147 to 148
84 | O=C(O)C1=Cc2cc(Cl)cc(Cl)c2SC1C(F)(F)F (stereo not given) | 218 to 220
85 | Cc1ccc(NC(=O)Nc2cnc3ccc(Cl)cc3c2-c2ccccc2)c(C)c1 | 230 to 231
86 | COc1cc(OC)c2c(c1)N(C)C(c1cc(C)c(O)c(C)c1)N=C2 (stereo not given) | 188 to 189
87 | O=c1ncc(Cl)cn1Cn1cc(Cl)cnc1=O | 260
88 | C1=Cc2cccnc2N(C2CC2)c2ncccc21 | 184 to 185
89 | O=C(OCC(F)(F)F)c1ncn2c1CN=C(c1ccccc1)c1cc(Br)ccc1-2 | 202 to 204
90 | Cc1cn(Cc2cc(C)c3c(c2)-c2[nH]nc(-c4ccsc4)c2C3)cn1 | 240 to 242
91 | O=C(O)C=CC(=O)NNC(=O)N1Cc2ccccc2Oc2ccc(Cl)cc21 | 171 to 172
92 | CN1C(=O)C2(COc3cc4c(cc32)OCCO4)c2c(-c3cnn(C)c3)cccc21 (stereo not given) | 220 to 222
93 | CCCn1cnc2c1c(=O)n(CC(C)(O)C#CCN(CC)CC)c(=O)n2C (stereo not given) | 109
94 | c1ccc(-c2ccc(-c3nc4n(n3)CCCc3ccccc3-4)cc2)cc1 | 135 to 137
95 | O=C(O)c1ccccc1-c1ccc2c(C(=O)NCC34CC5CC(CC(C5)C3)C4)c(Cl)ccc2n1 | 156 to 158
96 | O=C(O)CSc1nccc(-n2cc(C3c4ccccc4C=Cc4ccccc43)c(=S)[nH]c2=O)n1 | 190
97 | CNC(=S)C(OC)c1ccccn1 (stereo not given) | 104 to 105
98 | O=C(O)COc1ccc2cc(CNC(=O)c3cnn(-c4ccc(Cl)cc4)c3C(F)(F)F)ccc2c1Br | 245
99 | CCCCCCCCCCCCNC(=O)CC(Br)C(=O)O (stereo not given) | 62 to 70
100 | COc1cc(COc2nn(-c3ccccc3)cc2CO)ccc1OCc1nc(-c2ccco2)oc1C | 127 to 128
